Patent publication US20110230367A1, “Amphiphilic Peptides Promoting Production of Target miRNA and Method of Regulating Production of Target miRNA” (SNU R&DB FOUNDATION, priority 2009, published 2011)

Legend:
[1] = tested on: mature let7a-1 in HCT116 cells; assay: Production of mature miRNA in HCT116 cells by northern blotting; assay type: cell-based; conditions: 2 μM peptide, 3 hrs, FIG. 4
Procedure: (§1) The HCT116 cell was purchased from American Type Culture Collection (ATCC) and was cultured in RPMI1640 medium at 37° C., under 5% CO2. Total RNA was extracted using Trizol reagent (Invitrogen) according to the manufactures recommended protocol.
(§2) The change in RNA amount was analyzed by culturing the cells with 2 μM concentration of peptide 2b or peptide 2c and with lipofectamine.
(§3) HCT116 cells were treated with 2 μM of peptide 2b, 2c, 1e or 0.2 μg/ml of doxorubicin for 3 hrs before analyzing the production of mature miRNA in total RNA using northern blotting. The 18S rRNA band intensity was used as the loading control. […] Peptide 1e was used as a negative control. Decade marker (Ambion) and 10˜20 μg of total RNA were separated by using 12.5% polyacrylamide gel containing 7M urea in 20 mM of 3-(N-morpholino)propanesulfonic acid (MOPS)-NaOH(pH 7.0) buffer at 350V for 2 hrs. RNA blotting was performed by chemical cross-linking method. Each of the separated RNA was transferred with the neutral nylon membrane (Hybond NX, Amersham/Pharmacia) and crosslinked to the membrane using 1-ethyl-3-(3-dimethylaminopropyl)carbodiimide (EDC). The membrane was prehybridized with the hybridization buffer (Clontech, CA, USA) containing 50 μl of 10 mg/ml of salmon sperm DNA. Next, the isotope labeled probe DNA which is complementary to the miRNA sequence was hybridized for 2 hrs in the same buffer condition.
(§4) The probe was isotope labeled with 25 μCi of [γ-^32P] ATP (New England Biolabs) and 5 units of polynucleotide kinase (New England Biolabs). The probe was ethanol precipitated and dissolved in 50 μl of DEPC treated water for use. The membrane was washed twice for 30 min with 200 ml of wash buffer containing 0.3 M NaCl, 0.03 M sodium citrate and 0.05% sodium dodecyl sulfate (SDS)(pH 7.0), then washed twice for 15 min with 200 ml of wash buffer containing 0.015 M NaCl, 0.0015 M sodium citrate and 0.1% SDS(pH 7.0). The membrane was exposed on the phosphorimager screen and each of the band intensity was detected by FLA-3000 and analyzed by using MultiGauge Ver. 3.0 software (Fuji Photo).

[2] = tested on: mature miR16-1 in HCT116 cells; assay: as above; assay type: cell-based; conditions: 2 μM peptide, 3 hrs, FIG. 4
Procedure: as §1, §2, §3, §4

Row | Sequence | level of mature let7a-1 [1] | level of mature miR16-1 [2]
1 | WKKLLKLLKKWLKLAG [Peptide 2c, Ac-WKKLLKLLKKWLKLAG, 14] | increased | 
2 | WKKLLKWLKKLLKLAG [Peptide 2b, Ac-WKKLLKWLKKLLKLAG, 13] | significant increase | increased
